Results: patent US5215907A, “Thermostable acid protease from sulfolobus acidocaldarius” (Oklahoma Medical Research Foundation, priority 1992, dated 1993)
“Also recorded” adds a separate entry of the source. Numbered stars: 1 amine (or outer) side, 2 acyl side, 3 side chain; on linkers, the order of the positions; unused ones are H or OH. Peptide text beside a SMILES is read from it. CO = O=C([*:1])[*:2]

The compounds below were run against T1, thermopsin, thermostable acid protease purified from Sulfolobus acidocaldarius culture medium (Sulfolobus acidocaldarius, UniProt P17118) (assay: Effects of proteinase inhibitors on thermopsin proteolytic activity (14C-methylated hemoglobin assay)). Conditions: no concentration stated; see Table II.
T1 construct: The purification of thermopsin, therefore, was carried out using culture media as starting material; endogenous in cells; host or cells: Sulfolobus acidocaldarius (natural producer); enzyme purified in-house from the culture medium, not recombinant
T1 sequence (P17118 42-340): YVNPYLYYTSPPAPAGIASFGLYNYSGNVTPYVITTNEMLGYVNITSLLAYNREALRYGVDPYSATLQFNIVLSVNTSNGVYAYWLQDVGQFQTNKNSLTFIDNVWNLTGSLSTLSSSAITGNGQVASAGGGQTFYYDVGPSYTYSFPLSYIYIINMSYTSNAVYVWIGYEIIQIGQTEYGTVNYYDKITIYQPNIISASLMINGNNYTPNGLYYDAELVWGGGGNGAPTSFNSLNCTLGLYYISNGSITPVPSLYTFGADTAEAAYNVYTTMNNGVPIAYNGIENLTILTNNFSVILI
Type: biochemical
Experimental: Proteolytic activity is routinely assayed using ^14 C-methylated bovine hemoglobin as substrate, as prepared according to the method of Lin, et al., J. Biol. Chem., (1989, in press). The assay mixture, containing 0.51% hemoglobin substrate and thermopsin in 0.1 ml of 0.1M sodium formate, pH 3.2, is placed in an Eppendorf tube. After incubation at 80° C. for a period of time between 5 to 30 min, depending on the level of activity of thermopsin used, an aliquot of 0.1 ml of 10% trichloracetic acid is added to stop the reaction and precipitate the protein. After removal of the precipitate by centrifugation, the radioactivity of an aliquot of the clear supernate is determined in a scintillation counter.
The effect of various protease inhibitors on the activity of thermopsin was tested.
Thermopsin is preincubated with the indicated level of inhibitor in 0.1 M
phosphate buffer, pH 6.0, containing 1 mM EDTA and DTT at 37° C.
for 5 min. Sodium formate (pH 3.2) and ^14 CHemoglobin is then added
to a concentration as described above. The enzyme assay is then carried
out at 80° C. for 15 min. Enzyme activity is expressed as percent

Row | SMILES | effect of inhibitor on thermopsin activity (in words)
1 | O=S(=O)(F)Cc1ccccc1 [PMSF, phenylmethylsulfonyl fluoride] | significantly inactivate; also recorded: significant inhibition
2 | Cc1ccc(S(=O)(=O)N[C@@H](Cc2ccccc2)C(=O)CCl)cc1 [TPCK, N-Tosyl-L-phenylalanine chloromethyl ketone] | significantly inactivate; also recorded: significant inhibition
3 | CC(C)[C@H](NC(=O)[C@H](CCCNC(=N)N)NC(=O)N[C@@H](Cc1ccccc1)C(=O)O)C(=O)N[C@H](C=O)CCCNC(=N)N [Antipain, antipain] ({Phe-CO}-Arg-Val-Arg-aldehyde) | inhibited; also recorded: significant inhibition
4 | Cc1ccc(S(=O)(=O)N[C@@H](CCCCN)C(=O)CCl)cc1 [TLCK, N-p-Tosyl-1-lysine chloromethyl ketone] | much less effective
5 | CCN1C(=O)C=CC1=O [N-ethylmaleimide] | little effect
6 | CCCCC(NC(=O)C=[N+]=[N-])C(=O)OC (racemic) [DAN, diazoacetyl-DL-norleucinemethlyester] | not inactivated; also recorded: no effect
